This experiment deals with T1, Ubiquitin carboxyl-terminal hydrolase 1 (Homo sapiens, UniProt O94782).
T1 sequence (O94782 whole entry): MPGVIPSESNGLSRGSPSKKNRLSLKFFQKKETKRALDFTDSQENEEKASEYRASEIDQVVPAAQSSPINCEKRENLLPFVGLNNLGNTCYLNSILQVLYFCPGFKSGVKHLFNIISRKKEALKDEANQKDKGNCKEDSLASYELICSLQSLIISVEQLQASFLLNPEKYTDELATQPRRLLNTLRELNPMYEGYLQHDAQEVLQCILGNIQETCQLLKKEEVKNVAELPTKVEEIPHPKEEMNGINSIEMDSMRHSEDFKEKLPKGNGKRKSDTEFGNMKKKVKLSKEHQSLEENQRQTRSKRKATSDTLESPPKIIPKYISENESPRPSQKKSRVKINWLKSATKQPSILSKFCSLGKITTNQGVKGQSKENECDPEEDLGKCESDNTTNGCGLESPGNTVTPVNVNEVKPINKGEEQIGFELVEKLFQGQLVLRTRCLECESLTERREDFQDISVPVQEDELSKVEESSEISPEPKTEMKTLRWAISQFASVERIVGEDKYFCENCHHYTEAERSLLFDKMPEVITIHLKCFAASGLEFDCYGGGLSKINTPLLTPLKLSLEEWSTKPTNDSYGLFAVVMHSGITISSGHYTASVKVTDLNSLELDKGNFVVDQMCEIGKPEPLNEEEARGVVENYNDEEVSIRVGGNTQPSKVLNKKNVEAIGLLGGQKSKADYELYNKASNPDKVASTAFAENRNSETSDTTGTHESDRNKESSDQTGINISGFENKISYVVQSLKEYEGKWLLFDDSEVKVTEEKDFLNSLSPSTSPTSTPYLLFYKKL
Briefly: Experimental Method of USP1 Enzyme Activity.
Description: USPli compounds were screened by USP1 enzyme activity detection experiment.1.1 Experimental materials: recombinant human His6-USP1/His6-UAF1 composite protein.
Take `COc1ncnc(C2CC2)c1-c1ncc2c3ccc(=O)[nH]c3n(Cc3ccc4c(c3)CCCn3cc(C(F)(F)F)nc3-4)c2n1` [US20250368667, Compound 159]: the IC50 – broadly, the concentration at which inhibition is half-maximal – was 16.6 nM.
The result for `[2H]C([2H])([2H])Oc1ncnc(C2CC2)c1-c1ncc2c3cn(C)nc3n(Cc3ccc(-c4nc(C(F)(F)F)cn4C(C)C)cc3)c2n1` [US20250368667, Compound 162] reads 5.49 nM; that for `COc1cnn(C2CC2)c1-c1ncc2c3ccncc3n(Cc3ccc(-c4nc(C(F)(F)F)cn4C)cc3)c2n1` [US20250368667, Compound 103], 12.3 nM.
The compound `COc1ncnc(C2CC2)c1-c1ncc2c3ccc(C(C)C)nc3n(Cc3ccc4c(c3)CCCn3cc(C(F)(F)F)nc3-4)c2n1` [US20250368667, Compound 105] gave an IC50 of 5.17 nM.

(Values after BindingDB's records for patent US20250368667 (Shanghai Qilu Pharmaceutical Research and Development Centre, 2025).)
